Reference: patent US7638639B2, “Substituted pyrrolidine and related compounds” (Theravance, Inc., priority 2003, dated 2009)
Read-outs that look alike come from different tables or passages of the source.

Key:
[1] = biological target: T1, hM3 muscarinic receptor subtype (Homo sapiens, UniProt P20309); assay: Radioligand binding assay ([3H]-NMS displacement), hM3; conditions: for Δ hM3: change in binding affinity relative to compound of the invention: ratio of hM3 Ki values
T1 construct: expressed in transfected cells
T1 sequence (P20309 whole entry): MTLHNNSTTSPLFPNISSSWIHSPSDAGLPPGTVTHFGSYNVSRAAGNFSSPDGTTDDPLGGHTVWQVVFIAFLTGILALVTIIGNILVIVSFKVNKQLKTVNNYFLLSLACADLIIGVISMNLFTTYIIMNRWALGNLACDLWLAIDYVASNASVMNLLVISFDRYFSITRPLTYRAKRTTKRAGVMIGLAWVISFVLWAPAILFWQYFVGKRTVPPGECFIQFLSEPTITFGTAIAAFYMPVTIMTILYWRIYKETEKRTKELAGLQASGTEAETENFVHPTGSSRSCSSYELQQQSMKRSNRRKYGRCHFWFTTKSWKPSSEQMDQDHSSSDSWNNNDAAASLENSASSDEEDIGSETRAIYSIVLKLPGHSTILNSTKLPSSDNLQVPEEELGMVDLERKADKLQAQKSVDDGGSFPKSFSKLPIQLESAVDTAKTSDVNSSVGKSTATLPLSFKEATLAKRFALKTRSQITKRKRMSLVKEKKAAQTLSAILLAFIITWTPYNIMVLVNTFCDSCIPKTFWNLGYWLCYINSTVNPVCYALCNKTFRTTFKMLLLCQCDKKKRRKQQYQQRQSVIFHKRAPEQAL
Protocol: (§1) A. Membrane Preparation from Cells Expressing hM1, hM2, hM3 and hM4 Muscarinic Receptor Subtypes
(§2) CHO (Chinese hamster ovary) cell lines stably expressing cloned human hM1, hM2, hM3 and hM4 muscarinic receptor subtypes, respectively, were grown to near confluency in medium consisting of HAM's F-12 supplemented with 10% FBS (Fetal Bovine Serum) and 250 μg/mL Geneticin. The cells were grown in a 5% CO2, 37° C. incubator and lifted with 2 mm EDTA in dPBS. Cells were collected by 5 minute centrifugation at 650×g, and cell pellets were either stored frozen at −80° C. or membranes were prepared immediately. For membrane preparation, cell pellets were resuspended in lysis buffer and homogenized with a Polytron PT-2100 tissue disrupter (Kinematica AG; 20 seconds×2 bursts). Crude membranes were centrifuged at 40,000×g for 15 minutes at 4° C. The membrane pellet was then resuspended with resuspension buffer and homogenized again with the Polytron tissue disrupter. The protein concentration of the membrane suspension was determined by the method described in Lowry, O. et al., 1951, […]: 193, 265. All membranes were stored frozen in aliquots at −80° C. or used immediately. Aliquots of prepared hM5 receptor membranes were purchased directly from Perkin Elmer and stored at −80° C. until use.
(§3) B. Radioligand Binding Assay on Muscarinic Receptor Subtypes hM1, hM2, hM3, hM4 and hM5
(§4) Radioligand binding assays were performed in 96-well microtiter plates in a total assay volume of 100 μL. CHO cell membranes stably expressing either the hM1, hM2, hM3, hM4 or hM5 muscarinic subtype were diluted in assay buffer to the following specific target protein concentrations (μg/well): 10 μg for hM1, 10-15 μg for hM2, 10-20 μg for hM3, 10-20 μg for hM4, and 10-12 μg for hM5. The membranes were briefly homogenized using a Polytron tissue disruptor (10 seconds) prior to assay plate addition. Saturation binding studies for determining KD values of the radioligand were performed using L-[N-methyl-3H]scopolamine methyl chloride ([^3H]-NMS) (TRK666, 84.0 Ci/mmol, Amersham Pharmacia Biotech, Buckinghamshire, England) at concentrations ranging from 0.001 nM to 20 nM. Displacement assays for determination of Ki values of test compounds were performed with [^3H]-NMS at 1 nM and eleven different test compound concentrations. The test compounds were initially dissolved to a concentration of 400 μM in dilution buffer and then serially diluted 5× with dilution buffer to final concentrations ranging from […] to […]. The addition order and volumes to the assay plates were as follows: 25 μL radioligand, 25 μL diluted test compound, and 50 μL membranes. Assay plates were incubated for 60 minutes at 37° C. Binding reactions were terminated by rapid filtration over GF/B glass fiber filter plates (PerkinElmer Inc., Wellesley, Mass.) pre-treated in 1% BSA. Filter plates were rinsed three times with wash buffer (10 mm HEPES) to remove unbound radioactivity. Plates were then air dried, and 50 μL Microscint-20 liquid scintillation fluid (PerkinElmer Inc., Wellesley, Mass.) was added to each well. The plates were then counted in a PerkinElmer Topcount liquid scintillation counter (PerkinElmer Inc., Wellesley, Mass.). Binding data were analyzed by nonlinear regression analysis with the GraphPad Prism Software package (GraphPad Software, Inc., San Diego, Calif.) using the one-site competition model. Ki values for test compounds were calculated from observed IC50 values and the KD value of the radioligand using the Cheng-Prusoff equation (Cheng Y; Prusoff W H. (1973) Biochemical Pharmacology, 22(23):3099-108). Ki values were converted to pKi values to determine the geometric mean and 95% confidence intervals. These summary statistics were then converted back to Ki values for data reporting.

[2] = biological target: T2, hM2 muscarinic receptor subtype (Homo sapiens, UniProt P08172); assay: Radioligand binding assay ([3H]-NMS displacement), hM2; conditions: for Ki: CHO cell membranes, [3H]-NMS 1 nM, read-out: hM2 binding affinity (Ki); for Δ hM2: change in binding affinity relative to compound of the invention: ratio of hM2 Ki values
T2 construct: expressed in transfected cells
T2 sequence (P08172 1-466): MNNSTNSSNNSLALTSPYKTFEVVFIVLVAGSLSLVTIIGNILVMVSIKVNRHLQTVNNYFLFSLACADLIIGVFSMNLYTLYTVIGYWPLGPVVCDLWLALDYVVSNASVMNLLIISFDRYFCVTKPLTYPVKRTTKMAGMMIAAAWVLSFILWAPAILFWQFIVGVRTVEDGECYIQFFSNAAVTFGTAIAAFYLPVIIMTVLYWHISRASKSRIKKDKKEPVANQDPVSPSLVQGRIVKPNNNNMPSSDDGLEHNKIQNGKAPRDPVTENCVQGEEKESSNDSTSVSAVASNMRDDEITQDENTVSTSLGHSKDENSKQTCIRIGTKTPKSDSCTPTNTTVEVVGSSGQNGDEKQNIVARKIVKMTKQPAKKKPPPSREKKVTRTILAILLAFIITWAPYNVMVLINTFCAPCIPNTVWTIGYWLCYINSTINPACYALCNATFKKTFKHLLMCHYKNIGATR
Protocol: as §1, §2, §3, §4

[3] = CHO cell membranes, [3H]-NMS 1 nM, read-out: hM3 binding affinity (Ki)
[4] = radioligand displacement, read-out: Ki value for hM3

Ki [1, 3] | Δ hM3: change in binding affinity relative to compound of the invention [1] | Ki [2] | Δ hM2: change in binding affinity relative to compound of the invention [2] | Ki [1, 4] | SMILES
0.0025 µM | ×52 | 0.018 µM | ×39 |  | CN(C)CCCCCCCCN1CC[C@@H](C(C(N)=O)(c2ccccc2)c2ccccc2)C1 [Comp. Ex. A, 2-[(S)-1-(8-Dimethylaminooctyl)pyrrolidin-3-yl]-2,2-diphenylacetamide, reference compound]
0.025 µM |  | 0.12 µM |  |  | CN(C)CCCCCCCCCN1CC[C@@H](C(C(N)=O)(c2ccccc2)c2ccccc2)C1 [Comp. Ex. B, 2-[(S)-1-(9-Dimethylaminononyl)pyrrolidin-3-yl]-2,2-diphenylacetamide, reference compound]
0.05 µM |  | 0.15 µM |  |  | NCCCCCCCCN1CC[C@@H](C(C(N)=O)(c2ccccc2)c2ccccc2)C1 [Comp. Ex. D, 2-[(S)-1-(8-Aminooctyl)pyrrolidin-3-yl]-2,2-diphenylacetamide, reference compound]
0.00066 µM | ×37 | 0.0017 µM | ×70 | < 0.05 µM | CNCCCCCCCCCN1CC[C@@H](C(C(N)=O)(c2ccccc2)c2ccccc2)C1 [Example 14, 2-[(S)-1-(9-Methylaminnonyl)pyrrolidin-3-yl]-2,2-diphenylacetamide]

Second part, the molecule before the results:

SMILES | Ki [1, 3] | Δ hM3: change in binding affinity relative to compound of the invention [1] | Ki [2] | Δ hM2: change in binding affinity relative to compound of the invention [2] | Ki [1, 4]
CC(CCCCCCCN1CC[C@@H](C(C(N)=O)(c2ccccc2)c2ccccc2)C1)N(C)CCO (stereo partly drawn) [Comp. Ex. C, 2-{(S)-1-[8-N-(2-Hydroxyethyl)-N-methylaminononyl]pyrrolidin-3-yl}-2,2-diphenylacetamide, reference compound] | 0.073 µM |  | 0.083 µM |  | 
NC(=O)C(c1ccccc1)(c1ccccc1)[C@@H]1CCN(CCCCCCCCNCCO)C1 [Example 8, 2-{(S)-1-[8-(2-Hydroxyethyl)aminooctyl]pyrrolidin-3-yl}-2,2-diphenylacetamide] | 0.0051 µM | ×14 | 0.013 µM | ×6.3 | 
NC(=O)C(c1ccccc1)(c1ccccc1)[C@@H]1CCN(CCCCCCCCCNCc2ccccc2)C1 [Example 26, 2-[(S)-1-(9-Benzylaminononyl)pyrrolidin-3-yl]-2,2-diphenylacetamide] |  |  |  |  | < 0.05 µM
CNCCCCCCCCN1CC[C@H](C(C(N)=O)(c2ccccc2)c2ccccc2)C1 [Example 27, 2-[(R)-1-(8-Methylaminooctyl)pyrrolidin-3-yl]-2,2-diphenylacetamide] |  |  |  |  | < 0.05 µM
NC(=O)C(c1ccccc1)(c1ccccc1)[C@H]1CCN(CCCCCCCCNCc2ccccc2)C1 [Example 39, 2-[(R)-1-(8-Benzylaminooctyl)pyrrolidin-3-yl]-2,2-diphenylacetamide] |  |  |  |  | < 0.05 µM
